Source: patent US20190159452A1, “ACTIVE COMPOUND COMBINATIONS COMPRISING A (THIO)CARBOXAMIDE DERIVATIVE AND A FUNGICIDAL COMPOUND” (BAYER CROPSCIENCE AKTIENGESELLSCHAFT, priority 2015, published 2019)

Columns and labels:
[1] = log P by HPLC on a reversed-phase column (C18), EEC Directive 79/831 Annex V.A8; assay type: physicochemical; conditions: for chromatographic logP: reversed-phase C18 HPLC column, printed after the preparation step, method not restated
Method: In table 1, the log P values were determined in accordance with EEC Directive 79/831 Annex V.A8 by HPLC (High Performance Liquid Chromatography) on a reversed-phase column (C18), using the method described below:
Temperature: 40° C.; Mobile phases: 0.1% aqueous formic acid and acetonitrile; linear gradient from 10% acetonitrile to 90% acetonitrile.
Calibration was carried out using unbranched alkan-2-ones (comprising 3 to 16 carbon atoms) with known log P values (determination of the log P values by the retention times using linear interpolation between two successive alkanones). lambda-max-values were determined using UV-spectra from 200 nm to 400 nm and the peak values of the chromatographic signals.

Septoria tritici [2] = test: in vivo preventive Septoria tritici test (wheat); conditions: 21 days after inoculation
From the text: (§1) A synergistic effect of fungicides is always present when the fungicidal activity of the active compound combinations exceeds the total of the activities of the active compounds when applied individually. The expected activity for a given combination of two active compounds can be calculated as follows (cf. Colby, S. R., “Calculating Synergistic and Antagonistic Responses of Herbicide Combinations”, Weeds 1967, 15, 20-22): • If • X is the efficacy when active compound A is applied at an application rate of m ppm (or g/ha), • Y is the efficacy when active compound B is applied at an application rate of n ppm (or g/ha), • E is the efficacy when the active compounds A and B are applied at application rates of m and n ppm (or g/ha), respectively, and • then
(§2) The degree of efficacy, expressed in % is denoted. 0% means an efficacy which corresponds to that of the control while an efficacy of 100% means that no disease is observed.
(§3) Solvent: 49 parts by weight of N,N-dimethylacetamide
(§4) Emulsifier: 1 part by weight of alkylaryl polyglycol ether
To produce a suitable preparation of active compound, 1 part by weight of active compound or active compound combination is mixed with the stated amounts of solvent and emulsifier, and the concentrate is diluted with water to the desired concentration. […]
The test is evaluated 21 days after the inoculation. […]

Puccinia triticina = test: in vivo preventive Puccinia triticina test (wheat); conditions: 8 days after inoculation
From the text: as §1, §2, §3, §4
(§5) To produce a suitable preparation of active compound, 1 part by weight of active compound or active compound combination is mixed with the stated amounts of solvent and emulsifier, and the concentrate is diluted with water to the desired concentration.
(§6) To test for preventive activity, young plants are sprayed with the preparation of active compound or active compound combination at the stated rate of application.
(§7) After the spray coating has been dried, the plants are sprayed with a spore suspension of Puccinia triticina. The plants remain for 48 hours in an incubation cabinet at approximately 20° C. and a relative atmospheric humidity of approximately 100%.
The plants are placed in the greenhouse at a temperature of approximately 20° C. and a relative atmospheric humidity of approximately 80%.
(§8) The test is evaluated 8 days after the inoculation. 0% means an efficacy which corresponds to that of the untreated control, while an efficacy of 100% means that no disease is observed.

[3] = tested on: Blumeria graminis f.sp. hordei; test: in vivo preventive Blumeria test (barley); conditions: 7 days after inoculation
From the text: as §1, §2, §3, §4, §5
To test for preventive activity, young plants are sprayed with the preparation of active compound or active compound combination at the stated rate of application. After the spray coating has been dried, the plants are dusted with spores of Blumeria graminis f.sp. hordei.
The plants are placed in the greenhouse at a temperature of approximately 18° C. and a relative atmospheric humidity of approximately 80% to promote the development of mildew pustules.
The test is evaluated 7 days after the inoculation. 0% means an efficacy which corresponds to that of the untreated control, while an efficacy of 100% means that no disease is observed.

Pyrenophora teres = test: in vivo preventive Pyrenophora teres test (barley); conditions: 8 days after inoculation
From the text: as §1, §2, §3, §4, §5, §6
as §7, with “Pyrenophora teres.” for “Puccinia triticina.”, “100%. The plants are placed in the greenhouse at a temperature of approximately 20° C. and a relative atmospheric humidity of approximately 80%.” for “100%.”
as §8

Leptosphaeria nodorum = test: in vitro-test Leptosphaeria nodorum (microtiter plate, growth by extinction at 620 nm); assay type: cell-based; conditions: 2.5 ppm a.i., 3-5 days incubation
From the text: A synergistic effect of fungicides is always present when the fungicidal activity of the active compound combinations exceeds the total of the activities of the active compounds when applied individually. The expected activity for a given combination of two active compounds can be calculated as follows (cf. Colby, S. R., “Calculating Synergistic and Antagonistic Responses of Herbicide Combinations”, Weeds 1967, 15, 20-22): • If • X is the efficacy when active compound A is applied at an application rate of m ppm (or g/ha), • Y is the efficacy when active compound B is applied at an application rate of n ppm (or g/ha), • E is the efficacy when the active compounds A and B are applied at application rates of m and n ppm (or g/ha), respectively, and • then […]
The resulting concentrations of the test compounds or compound combinations in the microtiter wells are such as 50, 10, 2 and 0.4 ppm. […] With the aid of a photometer the extinction in all wells is measured at the wavelength of 620 nm. […]
At the end of the incubation time the growth of the test organisms is measured again photometrically at the wavelength of 620 nm. […] 0% efficacy means, the difference between the two extinction values is equal or even higher than of the untreated control, 100% efficacy means, no growth of the test organism is detected

Septoria tritici [4] = test: in vitro-test Septoria tritici (microtiter plate, growth by extinction at 620 nm); assay type: cell-based
From the text: as §1
Wells of 96-well microtiter plates are filled with 10 μl of a solution of the test compounds or compound combinations in methanol together with the emulsifier alkylaryl polyglycol ether. Thereafter, the solvent is evaporated in a hood. At the next step, into each well 100 μl of liquid potato dextrose medium is given, that has been amended with an appropriate concentration of spores or mycelium suspension of the test fungus.
The resulting concentrations of the test compounds or compound combinations in the microtiter wells are such as 50, 10, 2 and 0.4 ppm. The resulting concentration of the emulsifier in all wells is constantly 300 ppm. With the aid of a photometer the extinction in all wells is measured at the wavelength of 620 nm.
The microtiter plates are then transferred for 3-5 days onto a shaker at 20° C. and 85% relative humidity.
At the end of the incubation time the growth of the test organisms is measured again photometrically at the wavelength of 620 nm. The difference between the two extinctions values (taken before and after incubation) is proportional to the growth of the test organism. 0% efficacy means, the difference between the two extinction values is equal or even higher than of the untreated control, 100% efficacy means, no growth of the test organism is detected

[5] = Table B1, 30 ppm a.i., wheat, preventive
[6] = 0.1 ppm a.i., 3-5 days incubation

Molecule `Cc1ccc(S(=O)(=O)n2cc(F)c(N)nc2=O)cc1` [5-fluoro-4-imino-1-(p-tolylsulfonyl)pyrimidin-2-one] has a chromatographic logP [1] of 1.45.
In the case of `Cc1ccc(S(=O)(=O)n2cc(F)c(=N)n(C)c2=O)cc1` [(B1), 5-fluoro-4-imino-3-methyl-1-[(4-methylphenyl)sulfonyl]-3,4-dihydropyrimidin-2(1H)-one], the chromatographic logP [1] was 1.26, the “Efficacy in % found” value (Septoria tritici [2]; 30 ppm a.i.) was 0% and the “Efficacy in % found” value (Puccinia triticina; [5]) was 0%.
With `CC(C)C(O)(Cn1cncn1)c1ccc(Oc2ccc(Cl)cc2)cc1C(F)(F)F` (centres unmarked) [(B2), 2-[4-(4-chlorophenoxy)-2-(trifluoromethyl)phenyl]-3-methyl-1-(1H-1,2,4-triazol-1-yl)butan-2-ol] the “Efficacy in % found” value (Puccinia triticina; Table B2, 30 ppm a.i.) was 0%, the “Efficacy in % found” value (Puccinia triticina; Table B2, 50 ppm a.i.) was 10% and the “Efficacy in % found” value (Puccinia triticina; Table B2, 100 ppm a.i.) was 30%. The “Efficacy in % found” value (Puccinia triticina; Table B2, 200 ppm a.i.) was 40%, the “Efficacy in % found” value ([3]; 30 ppm a.i.) was 0% and the “Efficacy in % found” value ([3]; 50 ppm a.i.) was 30%. For the same molecule, the “Efficacy in % found” value ([3]; 60 ppm a.i.) was 60%, the “Efficacy in % found” value ([3]; 100 ppm a.i.) was 70% and the “Efficacy in % found” value (Pyrenophora teres; 50 ppm a.i.) was 22%. For the same molecule, the “Efficacy in % found” value (Pyrenophora teres; 60 ppm a.i.) was 44%, the “Efficacy in % found” value (Pyrenophora teres; 100 ppm a.i.) was 56% and the “Efficacy in % found” value (Leptosphaeria nodorum) was 1%. The “Efficacy in % found” value (Septoria tritici [4]; [6]) was 0%, the “Efficacy in % found” value (Septoria tritici [4]; 0.3 ppm a.i.) was 6% and the “Efficacy in % found” value (Septoria tritici [4]; 0.6 ppm a.i.) was 0%.
In the case of `CC(C)c1ccc(Cl)cc1CN(C(=O)c1c(C(F)F)nn(C)c1F)C1CC1` [Compound A5, N-(5-chloro-2-isopropylbenzyl)-N-cyclopropyl-3-(difluoromethyl)-5-fluoro-1-methyl-1H-pyrazole-4-carboxamide], the “Efficacy in % found” value (Septoria tritici [2]; 10 ppm a.i.) was 29%, the “Efficacy in % found” value (Puccinia triticina; [5]) was 75% and the “Efficacy in % found” value (Puccinia triticina; Table B2, 5 ppm a.i.) was 30%. The “Efficacy in % found” value (Puccinia triticina; Table B2, 10 ppm a.i.) was 40%, the “Efficacy in % found” value (Puccinia triticina; Table B2, 20 ppm a.i., wheat, preventive) was 70% and the “Efficacy in % found” value ([3]; 5 ppm a.i.) was 0%. The “Efficacy in % found” value ([3]; 10 ppm a.i.) was 20%, the “Efficacy in % found” value ([3]; 20 ppm a.i., barley, preventive) was 40% and the “Efficacy in % found” value (Pyrenophora teres; 5 ppm a.i.) was 44%. The “Efficacy in % found” value (Pyrenophora teres; 10 ppm a.i., barley, preventive) was 67%, the “Efficacy in % found” value (Leptosphaeria nodorum) was 36% and the “Efficacy in % found” value (Septoria tritici [4]; [6]) was 65%.
“N-cyclopropyl-3-(difluoromethyl)-5-fluoro-N-(2-isopropylbenzyl)-1-methyl-1H-pyrazole-4-carbothio-amide [Compound A20]” gave a logP [1] of 4.36.
